Experimental data published in patent US8895579B2, “Heterotricyclic AMPA receptor antagonists for treatment of epilepsy, pain, and other neurological disorders and diseases” (Northwestern University, priority 2010, dated 2014).
Entries after “also recorded” stand apart in the source; their conditions may differ.

What was measured:
[1] = biological target: T1, homomeric GluK1-2b kainate receptor (Rattus norvegicus, UniProt P22756); experiment: Whole-cell patch clamp of recombinant GluK1-2b receptors in HEK293-T/17 cells; format: cell-based; details: 30 μM; 10 mM glutamate
T1 construct: myc; expressed in transfected cells; host or cells: HEK293-T/17 (CRL-11268)
T1 sequence (P22756 31-905 isoform P22756-2 limits assumed): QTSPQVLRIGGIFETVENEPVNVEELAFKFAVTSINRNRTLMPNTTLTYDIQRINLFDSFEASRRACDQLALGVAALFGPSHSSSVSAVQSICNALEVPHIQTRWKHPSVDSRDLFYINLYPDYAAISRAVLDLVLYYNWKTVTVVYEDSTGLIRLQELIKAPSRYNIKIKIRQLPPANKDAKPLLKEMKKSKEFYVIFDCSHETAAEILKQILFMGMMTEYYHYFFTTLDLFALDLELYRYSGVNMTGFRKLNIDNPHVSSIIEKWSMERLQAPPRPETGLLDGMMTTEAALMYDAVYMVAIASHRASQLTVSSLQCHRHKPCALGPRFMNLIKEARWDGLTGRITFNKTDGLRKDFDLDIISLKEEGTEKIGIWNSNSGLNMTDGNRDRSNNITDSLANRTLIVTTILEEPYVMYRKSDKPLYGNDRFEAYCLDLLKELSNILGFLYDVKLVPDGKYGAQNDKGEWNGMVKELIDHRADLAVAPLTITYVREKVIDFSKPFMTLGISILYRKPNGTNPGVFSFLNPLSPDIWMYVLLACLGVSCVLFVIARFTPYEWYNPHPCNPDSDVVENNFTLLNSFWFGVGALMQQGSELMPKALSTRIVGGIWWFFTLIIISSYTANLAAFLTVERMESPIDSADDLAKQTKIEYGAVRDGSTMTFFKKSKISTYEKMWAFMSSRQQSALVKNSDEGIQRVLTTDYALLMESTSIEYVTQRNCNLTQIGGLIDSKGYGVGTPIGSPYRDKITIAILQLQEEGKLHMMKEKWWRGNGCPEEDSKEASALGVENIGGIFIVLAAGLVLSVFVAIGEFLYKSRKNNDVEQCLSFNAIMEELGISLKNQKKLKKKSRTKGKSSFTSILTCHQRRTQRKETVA
Protocol: (§1) Cell Culture and Transfection. Human embryonic kidney cells expressing T-antigen, clone 17 (HEK293-T/17) (CRL-11268) were cultured at 37° C. with 5% CO2 in DMEM, including 100 μg/mL penicillin, 100 μg/mL streptomycin, and 10% heat-inactivated fetal bovine serum. Cells were split twice per week. For transfection, HEK293-T/17 cells were plated at 3×10^4 cells/cm^2 for pharmacology experiments and 5×10^3 cells/cm^2 for physiology experiments in fresh medium 24 h prior to transfection. Cells were transfected with AMPA or KA receptor plasmid cDNAs using Mirus Trans-IT transfection reagent (Minus Bio Corporation, Madison, Wis.) at a ratio of 1 μg cDNA: 3 μL Trans-1T reagent and maintained in transfection medium overnight followed by a media change the next day. Transfected cells were maintained in this medium until the experiment was conducted (48-72 h total post transfection).
(§2) Electrophysiology. For analysis of recombinant receptors, HEK293-T/17 cells were co-transfected with 0.2 μg of iGluR cDNA and 0.05 μg of eGFP. For heterologous GluA1/GluA2 receptors, the GluA1:GluA2 cDNA ratio was 1:6. Two to three days post-transfection, eGFP-expressing cells were lifted from the cover slip and voltage clamped in whole cell mode. […]

[2] = test system: mice; details: Ikoma et al., 2008; Oikawa et al., 2009 and unpublished observations; cited from earlier work
[3] = test system: AMPA receptor EPSCs, CA1 pyramidal neurons; experiment: AMPA receptor EPSCs at Schaffer collateral-CA1 synapses, acute hippocampal slices; format: cell-based, mouse; details: 20 μM
Protocol: For recordings from acute hippocampal slices, brains from P15-21 C57Bl/6 mice were sliced transversely (350 μm thickness) in a sucrose slicing solution containing (in mM) 85 NACl, 2.5 KCl, 1.25 NaH2PO4, 25 NaHCO3, 25 glucose, 75 sucrose, 0.5 CaCl2, 4 MgCl2, 0.5 Na ascorbate, 10 μM DL-APV and 100 μM kynurenic acid (pH 7.3). After slicing, the solution was exchanged with an incubation solution containing (in mM) 125 NaCl, 2.4 KCl, 1.2 NaH2PO4, 25 NaHCO3, 25 glucose: 1 CaCl2, 2 MgCl2, 0.5 Na ascorbate, 10 μM DL-APV and 100 μM kynurenic acid (pH 7.3) that was bubbled continuously with CO2-balanced O2 (carbogen). […] Recordings in voltage clamp mode used the CsF/CsCl internal solution and carbogenated external recording solution containing (in mM) 120 NaCl, 2.4 KCl, 2 MgCl2, 1 CaCl2, 25 NaHCO3, 1.2 NaH2PO4, 25 glucose, 10 μM bicuculline methiodide, 50 μM PTX and 50 μM D-APV (pH 7.3). […] NMDA EPSCs were validated by addition of D-APV (50 μM) at the end of each recording. Hippocampal CA1 or CA3 pyramidal cells were voltage clamped at −70 mV and stimulated with a monopolar electrode either the stratum radiatum or stratum lucidum, respectively. IKM compounds were applied for 10 minutes and changes in the peak amplitudes of excitatory post-synaptic currents (EPSCs) and paired-pulse ratios were analyzed during the last two minutes of drug application. EPSC charge transfer, AP frequency, paired-pulse ratio and EPSC peak amplitude were analyzed with Mini-Analysis v6.03 (Synaptosoft, Decatur, Ga.) and Clampfit v10.0 (MDS, Sunnyvale, Calif.) software.

[4] = biological target: T2, homomeric GluK2a kainate receptor (Rattus norvegicus, UniProt P42260); experiment: Whole-cell patch clamp of recombinant GluK2a receptors in HEK293-T/17 cells; format: cell-based; details: 30 μM; 10 mM glutamate
T2 construct: myc; expressed in transfected cells; host or cells: HEK293-T/17 (CRL-11268)
T2 sequence (P42260 32-908): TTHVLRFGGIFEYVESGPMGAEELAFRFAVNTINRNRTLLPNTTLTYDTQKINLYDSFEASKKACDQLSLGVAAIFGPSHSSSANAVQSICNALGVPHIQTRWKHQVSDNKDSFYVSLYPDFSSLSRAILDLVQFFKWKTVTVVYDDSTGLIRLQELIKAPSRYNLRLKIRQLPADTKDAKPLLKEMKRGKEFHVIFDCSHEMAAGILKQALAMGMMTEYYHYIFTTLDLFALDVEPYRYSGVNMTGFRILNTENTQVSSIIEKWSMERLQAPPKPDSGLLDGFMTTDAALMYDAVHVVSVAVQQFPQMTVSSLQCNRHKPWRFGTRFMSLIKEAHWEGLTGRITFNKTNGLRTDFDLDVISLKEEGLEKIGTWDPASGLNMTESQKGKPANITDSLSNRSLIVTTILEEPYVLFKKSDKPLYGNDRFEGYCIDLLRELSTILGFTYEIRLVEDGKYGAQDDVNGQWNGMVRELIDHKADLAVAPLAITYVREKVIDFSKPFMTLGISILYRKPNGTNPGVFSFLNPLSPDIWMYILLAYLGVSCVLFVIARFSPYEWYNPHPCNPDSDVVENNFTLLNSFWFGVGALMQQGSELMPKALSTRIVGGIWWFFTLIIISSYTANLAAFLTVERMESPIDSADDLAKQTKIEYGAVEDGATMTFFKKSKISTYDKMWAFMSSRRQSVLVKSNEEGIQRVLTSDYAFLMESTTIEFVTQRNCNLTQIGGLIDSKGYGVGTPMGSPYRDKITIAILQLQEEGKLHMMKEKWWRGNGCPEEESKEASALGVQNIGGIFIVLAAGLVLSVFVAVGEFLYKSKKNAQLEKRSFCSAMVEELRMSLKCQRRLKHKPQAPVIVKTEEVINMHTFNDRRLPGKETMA
Protocol: as §1, §2

## O=C(O)C[C@@]12O[C@H]3C=CCN[C@H]3C1CN[C@H]2C(=O)O (stereo partly shown) [IKM-159]
[1]
  GluK1-2b peak amplitude as percent of basal peak glutamate current: 90±10%
[2]
  behavioral phenotype in mice: hypoactive phenotypes similar to cataleptic states; also recorded: marked hypoactivity and immobility
[3]
  AMPA EPSC peak amplitude as percent of control peak amplitude: 66±5%
  reduction of mean amplitude of AMPA receptor EPSCs: 34±5%
  time synaptic amplitudes remained depressed after application: > 10 min
[3]; control 560±20 pA
  mean AMPA receptor EPSC amplitude in presence of compound: 370±40 pA
[4]
  GluK2a peak amplitude as percent of basal peak glutamate current: 93±2%
